Assay results from article PMC10881971, “Hepa-ToxMOA: a pathway-screening method for evaluating cellular stress and hepatic metabolic-dependent toxicity of natural products” (Scientific Reports, 2024).
Structures can show the parent of a compound that is named as a salt. Where two headings read alike, the source gives them in different places.

Tests used:
[1] = system: AP1, P53, Nrf2, and NF-κB
[2] = under metabolic activation (S9+, 1% rat liver S9), 24 h
[3] = without metabolic activation (S9-), 24 h

## CCc1c2c(nc3ccc(O)cc13)-c1cc3c(c(=O)n1C2)COC(=O)[C@]3(O)CC [7-Ethyl-10-Hydroxycamptothecin]
AP1
  GFP intensity, AP1 cell line: increased

## CC[C@@]1(O)C(=O)OCc2c1cc1n(c2=O)Cc2cc3cc(O)ccc3nc2-1 [10-Hydroxycamptothecin]
[1]
  Toxic (natural products exceeding Score 3, Venn diagram list Fig. 3c): Common
  sum of activity scores compared between metabolic activation and non-metabolic conditions: consistently active regardless of metabolic activation
AP1; regardless of metabolic activation (S9- and S9+), 24 h
  GFP intensity, AP1 cell line: increased

## C[C@]12CC[C@H](O)C[C@H]1CC[C@@H]1[C@@H]2[C@H](O)C(=O)[C@]2(C)[C@@H](c3ccc(=O)oc3)CC[C@]12O [Arenobufagin]
[1]
  Toxic (natural products exceeding Score 3, Venn diagram list Fig. 3c): S9- only
  sum of activity scores compared between metabolic activation and non-metabolic conditions: more active without metabolic activation
AP1; [2]
  GFP expression, AP1 cell line: did not respond
AP1; [3]
  GFP expression, AP1 cell line: specifically induced GFP expression

## CC1=C(O)C(=O)C=C2C1=CC=C1[C@@]2(C)CC[C@@]2(C)[C@@H]3C[C@](C)(C(=O)O)CC[C@]3(C)CC[C@]12C [Celastrol]
[1]
  sum of activity scores compared between metabolic activation and non-metabolic conditions: more active under metabolic activation
[1]; human
  Toxic (natural products exceeding Score 3, Venn diagram list Fig. 3c): S9+ only

## CC(=O)O[C@H]1[C@H]2O[C@]23[C@@H]2CC[C@]4(O)C[C@@H](O)CC[C@]4(C)[C@H]2CC[C@]3(C)[C@H]1c1ccc(=O)oc1 [Cinobufotalin]
[1]
  sum of activity scores compared between metabolic activation and non-metabolic conditions: more active without metabolic activation
[1]; human
  Toxic (natural products exceeding Score 3, Venn diagram list Fig. 3c): S9- only

## C[C@@]1(C(=O)O)CC[C@]2(C)CC[C@]3(C)C4=CC(=O)c5c(cc(O)c(O)c5C=O)[C@]4(C)CC[C@@]3(C)[C@@H]2C1 [Demethylzeylasteral]
[1]
  sum of activity scores compared between metabolic activation and non-metabolic conditions: did not show a response

## CC(C)=CCc1c(O)cc2oc3cc(O)c(O)c(CCC(C)(C)O)c3c(=O)c2c1O [Garcinone C]
[1]
  Toxic (natural products exceeding Score 3, Venn diagram list Fig. 3c): S9+ only
  sum of activity scores compared between metabolic activation and non-metabolic conditions: more active under metabolic activation

## CO[C@]1(CC[C@@H](C)CO[C@@H]2O[C@H](CO)[C@@H](O)[C@H](O)[C@H]2O)O[C@H]2C[C@H]3[C@@H]4CC=C5C[C@@H](O[C@@H]6O[C@H](CO)[C@@H](O[C@@H]7O[C@@H](C)[C@H](O)[C@@H](O)[C@H]7O)[C@H](O)[C@H]6O[C@@H]6O[C@@H](C)[C@H](O)[C@@H](O)[C@H]6O)CC[C@]5(C)[C@H]4CC[C@]3(C)[C@H]2[C@@H]1C [Methyl protodioscin]
AP1
  GFP intensity, AP1 cell line: increased

## C[C@@H]1CC[C@@]2(OC1)O[C@H]1C[C@H]3[C@@H]4CC=C5C[C@@H](O)C[C@@H](O[C@@H]6O[C@H](C)[C@H](O)[C@H](O)[C@H]6O[C@@H]6O[C@@H](C)[C@H](O)[C@@H](O)[C@H]6O)[C@]5(C)[C@H]4CC[C@]3(C)[C@H]1[C@@H]2C [Ophiopogonin B]
[1]
  sum of activity scores compared between metabolic activation and non-metabolic conditions: did not show a response

## CO[C@H]1C[C@H](O[C@H]2CC[C@]3(C)[C@H]4CC[C@]5(C)[C@@H](C6=CC(=O)OC6)CC[C@]5(O)[C@@H]4CC[C@]3(O)C2)O[C@H](C)[C@H]1O[C@@H]1O[C@H](CO)[C@@H](O)[C@H](O)[C@H]1O [Periplocoside]
AP1; [2]
  GFP expression, AP1 cell line: did not respond
AP1; [3]
  GFP expression, AP1 cell line: specifically induced GFP expression

## COc1cc([C@@H]2c3cc4c(cc3[C@H](O)[C@H]3COC(=O)[C@@H]23)OCO4)cc(OC)c1OC [Picropodophyllotoxin]
AP1; [2]
  GFP expression, AP1 cell line: did not respond
AP1; [3]
  GFP expression, AP1 cell line: specifically induced GFP expression

## C[C@@H]1O[C@@H](O[C@H]2[C@H](OC(=O)[C@]34CCC(C)(C)C[C@H]3C3=CC[C@@H]5[C@@]6(C)C[C@H](O)[C@H](O[C@@H]7O[C@H](CO)[C@@H](O)[C@H](O[C@@H]8O[C@H](CO)[C@@H](O)[C@H](O)[C@H]8O)[C@H]7O)C(CO)(CO)[C@@H]6CC[C@@]5(C)[C@]3(C)C[C@H]4O)OC[C@H](O)[C@@H]2O)[C@H](O)[C@H](O)[C@H]1O[C@@H]1OC[C@@H](O)[C@H](O[C@@H]2OC[C@](O)(CO)[C@H]2O)[C@H]1O [Platycodin D2]
[1]
  sum of activity scores compared between metabolic activation and non-metabolic conditions: more active without metabolic activation
[1]; human
  Toxic (natural products exceeding Score 3, Venn diagram list Fig. 3c): S9- only

## C[C@@H]1O[C@@H](O[C@H]2[C@H](OC(=O)[C@]34CCC(C)(C)C[C@H]3C3=CC[C@@H]5[C@@]6(C)C[C@H](O)[C@H](O[C@@H]7O[C@H](CO)[C@@H](O)[C@H](O)[C@H]7O)C(CO)(CO)[C@@H]6CC[C@@]5(C)[C@]3(C)C[C@H]4O)OC[C@H](O)[C@@H]2O)[C@H](O)[C@H](O)[C@H]1O[C@@H]1OC[C@@H](O)[C@H](O[C@@H]2OC[C@](O)(CO)[C@H]2O)[C@H]1O [Platycodin D]
[1]
  sum of activity scores compared between metabolic activation and non-metabolic conditions: more active under metabolic activation
[1]; human
  Toxic (natural products exceeding Score 3, Venn diagram list Fig. 3c): S9+ only

## C[C@]12CC[C@H](O)C[C@@]1(O)CC[C@@H]1[C@@H]2CC[C@]2(C)[C@@H](c3ccc(=O)oc3)CC[C@]12O [Telocinobufagin]
[1]
  sum of activity scores compared between metabolic activation and non-metabolic conditions: more active without metabolic activation
[1]; human
  Toxic (natural products exceeding Score 3, Venn diagram list Fig. 3c): S9- only

## CC[C@]1(O)C[C@@H]2CN(CCc3c([nH]c4ccccc34)[C@@](C(=O)OC)(c3cc4c(cc3OC)N(C)[C@H]3[C@@](O)(C(=O)OC)[C@H](OC(C)=O)[C@]5(CC)C=CCN6CC[C@]43[C@@H]65)C2)C1 [Vinblastine sulfate, reference compound]
[1]
  sum of activity scores compared between metabolic activation and non-metabolic conditions: more active under metabolic activation
[1]; human
  Toxic (natural products exceeding Score 3, Venn diagram list Fig. 3c): S9+ only

## CC[C@]1(O)C[C@H]2CN(CCc3c([nH]c4ccccc34)[C@@](C(=O)OC)(c3cc4c(cc3OC)N(C=O)[C@H]3[C@@](O)(C(=O)OC)[C@H](OC(C)=O)[C@]5(CC)C=CCN6CC[C@]43[C@@H]65)C2)C1 [Vincristine, reference compound]
[1]
  active (increased GFP intensity) for all Hepa-ToxMOA cell lines (Fig. 3d): commonly active
  sum of activity scores compared between metabolic activation and non-metabolic conditions: more active under metabolic activation
[1]; human
  Toxic (natural products exceeding Score 3, Venn diagram list Fig. 3c): S9+ only

## COc1c(O)cc2oc3cc(O)c(CC=C(C)C)c(O)c3c(=O)c2c1CC=C(C)C [alpha-Mangostin]
[1]
  Toxic (natural products exceeding Score 3, Venn diagram list Fig. 3c): S9+ only
  sum of activity scores compared between metabolic activation and non-metabolic conditions: more active under metabolic activation

## O=C(C[C@@H]1NCCC[C@H]1O)Cn1cnc2ccccc2c1=O [beta-dichroine, beta-febrifugine (beta-dichroine)]
[1]
  sum of activity scores compared between metabolic activation and non-metabolic conditions: did not show a response
